Reference: PubChem BioAssay AID256 (DTP/NCI, 2004)
Values joined by “and” are separate entries in the source; they are usually repeats but may differ in a detail not shown here. Identical values can stand only once. Toxic doses and inconclusive results are not listed. Rule for the calls: active = survival T/C of 150% or more; inactive = T/C below 125% in these data.

Test system: CD2F1 mice, L1210 leukemia ip, survival T/C
Experiment: NCI In Vivo Anticancer Drug Screen. Data for tumor model L1210 Leukemia (intraperitoneal) in CD2F1 (CDF1) mice
Conditions: higher = longer survival
Method in brief: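 Each value reflects a quotient of treated over vehicle control outcomes in mice with a transplanted tumor.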

[1] = endpoint: mean survival time, dose: 100.0 mg/kg/injection, schedule: Q04DX003 (ip), vehicle: saline with Tween-80
[2] = endpoint: mean survival time, dose: 200.0 mg/kg/injection, schedule: Q04DX003 (ip), vehicle: saline with Tween-80
[3] = endpoint: mean survival time, dose: 400.0 mg/kg/injection, schedule: Q04DX003 (ip), vehicle: saline with Tween-80
[4] = endpoint: mean survival time, dose: 100.0 mg/kg/injection, schedule: Q01DX009 (ip), vehicle: saline with Tween-80
[5] = endpoint: mean survival time, dose: 200.0 mg/kg/injection, schedule: Q01DX009 (ip), vehicle: saline with Tween-80
[6] = endpoint: mean survival time, dose: 50.0 mg/kg/injection, schedule: Q01DX009 (ip), vehicle: Klucel (hydroxypropylcellulose) (HPC)
[7] = endpoint: mean survival time, dose: 100.0 mg/kg/injection, schedule: Q01DX009 (ip), vehicle: Klucel (hydroxypropylcellulose) (HPC)
[8] = endpoint: mean survival time, dose: 200.0 mg/kg/injection, schedule: Q01DX009 (ip), vehicle: Klucel (hydroxypropylcellulose) (HPC)
[9] = endpoint: mean survival time, dose: 100.0 mg/kg/injection, schedule: Q01DX001 (ip), vehicle: saline with Tween-80
[10] = endpoint: mean survival time, dose: 200.0 mg/kg/injection, schedule: Q01DX001 (ip), vehicle: saline with Tween-80
[11] = endpoint: mean survival time, dose: 400.0 mg/kg/injection, schedule: Q01DX001 (ip), vehicle: saline with Tween-80
[12] = endpoint: mean survival time, dose: 12.5 mg/kg/injection, schedule: Q01DX009 (ip), vehicle: saline with Tween-80
[13] = endpoint: mean survival time, dose: 25.0 mg/kg/injection, schedule: Q01DX009 (ip), vehicle: saline with Tween-80
[14] = endpoint: mean survival time, dose: 50.0 mg/kg/injection, schedule: Q01DX009 (ip), vehicle: saline with Tween-80

Measured: T/C

C=C(C)CNCC(=C)C
inactive: endpoint: mean survival time, dose: 25.0 mg/kg/injection, schedule: Q04DX003 (ip), vehicle: saline 102 % of control | endpoint: mean survival time, dose: 50.0 mg/kg/injection, schedule: Q04DX003 (ip), vehicle: saline 98 % of control | endpoint: mean survival time, dose: 100.0 mg/kg/injection, schedule: Q04DX003 (ip), vehicle: saline 102 % of control and 106 % of control

CNCc1ccc2c(c1)OCO2
inactive: endpoint: mean survival time, dose: 75.0 mg/kg/injection, schedule: Q01DX001 (ip), vehicle: saline 100 % of control | endpoint: mean survival time, dose: 150.0 mg/kg/injection, schedule: Q01DX001 (ip), vehicle: saline 103 % of control

CCCCCCCCCCNC(C1=C(O)c2ccccc2C(=O)C1=O)c1ccccc1 (stereo not drawn)
inactive: endpoint: mean survival time, dose: 6.25 mg/kg/injection, schedule: Q01DX001 (ip), vehicle: saline with Tween-80 107 % of control | endpoint: mean survival time, dose: 12.5 mg/kg/injection, schedule: Q01DX001 (ip), vehicle: saline with Tween-80 100 % of control | endpoint: mean survival time, dose: 25.0 mg/kg/injection, schedule: Q01DX001 (ip), vehicle: saline with Tween-80 92 % of control

CSc1nc2cc(S(=O)(=O)O)ccc2s1
inactive: endpoint: mean survival time, dose: 100.0 mg/kg/injection, schedule: Q04DX003 (ip), vehicle: saline sonified 103 % of control | endpoint: mean survival time, dose: 200.0 mg/kg/injection, schedule: Q04DX003 (ip), vehicle: saline sonified 97 % of control | endpoint: mean survival time, dose: 400.0 mg/kg/injection, schedule: Q04DX003 (ip), vehicle: saline sonified 89 % of control

CSc1ncnc2nn(C3OC(COC(=O)c4ccccc4)C(OC(=O)c4ccccc4)C3OC(=O)c3ccccc3)nc12 (stereo not drawn)
inactive: endpoint: median survival time, dose: 12.5 mg/kg/injection, schedule: Q01DX005 (ip), vehicle: Klucel (hydroxypropylcellulose) (HPC) 94 % of control | endpoint: median survival time, dose: 25.0 mg/kg/injection, schedule: Q01DX005 (ip), vehicle: Klucel (hydroxypropylcellulose) (HPC) 86 % of control | endpoint: median survival time, dose: 50.0 mg/kg/injection, schedule: Q01DX005 (ip), vehicle: Klucel (hydroxypropylcellulose) (HPC) 87 % of control | endpoint: median survival time, dose: 100.0 mg/kg/injection, schedule: Q01DX005 (ip), vehicle: Klucel (hydroxypropylcellulose) (HPC) 93 % of control and 95 % of control | endpoint: median survival time, dose: 200.0 mg/kg/injection, schedule: Q01DX005 (ip), vehicle: Klucel (hydroxypropylcellulose) (HPC) 89 % of control and 95 % of control | endpoint: median survival time, dose: 400.0 mg/kg/injection, schedule: Q01DX005 (ip), vehicle: Klucel (hydroxypropylcellulose) (HPC) 95 % of control

CCOc1ccc2c(c1)C(C)=CC(C)(C)N2
inactive: [1] 95 % of control | [2] 104 % of control | [3] 91 % of control

CCCCCCCCCCCC(=O)N(C)CCS(=O)(=O)O
inactive: endpoint: mean survival time, dose: 100.0 mg/kg/injection, schedule: Q01DX009 (ip), vehicle: saline 103 % of control | endpoint: mean survival time, dose: 200.0 mg/kg/injection, schedule: Q01DX009 (ip), vehicle: saline 101 % of control | endpoint: mean survival time, dose: 400.0 mg/kg/injection, schedule: Q01DX009 (ip), vehicle: saline 109 % of control

C(=N/c1ccccn1)/c1ccc(/C=N\c2ccccn2)cc1
inactive: endpoint: mean survival time, dose: 100.0 mg/kg/injection, schedule: Q04DX003 (ip), vehicle: Klucel (hydroxypropylcellulose) (HPC) 94 % of control | endpoint: mean survival time, dose: 200.0 mg/kg/injection, schedule: Q04DX003 (ip), vehicle: Klucel (hydroxypropylcellulose) (HPC) 94 % of control | endpoint: mean survival time, dose: 400.0 mg/kg/injection, schedule: Q04DX003 (ip), vehicle: Klucel (hydroxypropylcellulose) (HPC) 102 % of control

O=C(Nc1ccc(Br)cc1)c1ccccc1
inactive: [4] 107 % of control | [1] 102 % of control | [5] 94 % of control | [2] 102 % of control | endpoint: mean survival time, dose: 400.0 mg/kg/injection, schedule: Q01DX009 (ip), vehicle: saline with Tween-80 91 % of control | [3] 100 % of control

O=C(O)CCCC(=O)c1ccccc1
inactive: [6] 91 % of control | [7] 91 % of control | [8] 95 % of control

COC1=CCC(=Nc2ccccc2)C=C1
inactive: [9] 96 % of control | [10] 102 % of control | [11] 95 % of control

COC(=O)C1(C)CCCC2(C)C3CC4OC4(C(C)C)CC3(O)CCC12 (stereo not drawn)
inactive: [1] 96 % of control | [2] 96 % of control | [3] 98 % of control

O=C(OC12CCCC1CC2)c1ccc([N+](=O)[O-])cc1 (stereo not drawn)
inactive: [4] 97 % of control | [5] 95 % of control

CCOC(=O)/C=C(\C)Nc1cccc(NC(C)=O)c1
inactive: endpoint: mean survival time, dose: 12.5 mg/kg/injection, schedule: Q01DX009 (ip), vehicle: other 97 % of control | endpoint: mean survival time, dose: 25.0 mg/kg/injection, schedule: Q01DX009 (ip), vehicle: other 91 % of control | endpoint: mean survival time, dose: 50.0 mg/kg/injection, schedule: Q01DX009 (ip), vehicle: other 91 % of control | endpoint: mean survival time, dose: 100.0 mg/kg/injection, schedule: Q01DX009 (ip), vehicle: other 100 % of control | endpoint: mean survival time, dose: 200.0 mg/kg/injection, schedule: Q01DX009 (ip), vehicle: other 91 % of control

O=C(O)c1cnc(Cl)nc1Nc1ccccc1I
inactive: [10] 86 % of control

CCCCNC(C)(C)C(SSSC(c1ccc(Cl)cc1)C(C)(C)NCCCC)c1ccc(Cl)cc1 (stereo not drawn)
inactive: endpoint: mean survival time, dose: 12.0 mg/kg/injection, schedule: Q04DX003 (ip), vehicle: other 97 % of control | endpoint: mean survival time, dose: 25.0 mg/kg/injection, schedule: Q04DX003 (ip), vehicle: other 105 % of control | endpoint: mean survival time, dose: 50.0 mg/kg/injection, schedule: Q04DX003 (ip), vehicle: other 96 % of control

CCOC(=O)c1cnc(SC)nc1NCc1cccc(C)c1
inactive: [9] 98 % of control | [10] 96 % of control | [11] 91 % of control

NC(=S)N/N=C/c1cc(Cl)c2nc(-c3ccccc3)ccc2c1
inactive: [1] 104 % of control | [2] 102 % of control | [3] 104 % of control

COc1cccc2c1C(=O)c1c(O)c3c(c(O)c1C2=O)C[C@@](O)(C(=O)CN1CCOCC1)C[C@@H]3OC1CC(N)C(O)C(C)O1 (stereo partly drawn)
inactive: endpoint: mean survival time, dose: 6.25 mg/kg/injection, schedule: Q04DX003 (ip), vehicle: water 90 % of control | endpoint: mean survival time, dose: 12.5 mg/kg/injection, schedule: Q04DX003 (ip), vehicle: water 91 % of control | endpoint: mean survival time, dose: 25.0 mg/kg/injection, schedule: Q04DX003 (ip), vehicle: water 105 % of control | endpoint: mean survival time, dose: 50.0 mg/kg/injection, schedule: Q04DX003 (ip), vehicle: water 91 % of control

CC/C=N/Nc1ccc([N+](=O)[O-])cc1[N+](=O)[O-]
inactive: [12] 91 % of control | [13] 92 % of control | [14] 93 % of control

CCOP(=O)(OCC)C(C(C)C)N(C)C (stereo not drawn)
inactive: [9] 103 % of control | [10] 101 % of control | [11] 98 % of control

Cc1cccc(N(C)C(=S)Oc2ccc3ccccc3c2)c1
inactive: [6] 112 % of control | [7] 89 % of control | [8] 89 % of control

CC(Cc1ccccc1)NC(N)=O (stereo not drawn)
inactive: [12] 100 % of control | [13] 97 % of control | [14] 92 % of control

CCOC(=O)C(C(C)=O)C(C)=O
inactive: [1] 102 % of control | [2] 94 % of control | [3] 94 % of control

NP(=O)(Oc1ccc([N+](=O)[O-])cc1)Oc1ccc([N+](=O)[O-])cc1
inactive: endpoint: mean survival time, dose: 62.5 mg/kg/injection, schedule: Q01DX001 (ip), vehicle: other 97 % of control | endpoint: mean survival time, dose: 125.0 mg/kg/injection, schedule: Q01DX001 (ip), vehicle: other 93 % of control | endpoint: mean survival time, dose: 250.0 mg/kg/injection, schedule: Q01DX001 (ip), vehicle: other 97 % of control | endpoint: mean survival time, dose: 500.0 mg/kg/injection, schedule: Q01DX001 (ip), vehicle: other 86 % of control

O=c1[nH]c(=O)n(C2OC(CO)C(O)C(O)C2O)cc1F (stereo not drawn)
inactive: endpoint: mean survival time, dose: 12.5 mg/kg/injection, schedule: Q01DX005 (ip), vehicle: water 105 % of control | endpoint: mean survival time, dose: 25.0 mg/kg/injection, schedule: Q01DX005 (ip), vehicle: water 95 % of control | endpoint: mean survival time, dose: 50.0 mg/kg/injection, schedule: Q01DX005 (ip), vehicle: water 101 % of control | endpoint: mean survival time, dose: 100.0 mg/kg/injection, schedule: Q01DX005 (ip), vehicle: water 103 % of control | endpoint: mean survival time, dose: 200.0 mg/kg/injection, schedule: Q01DX005 (ip), vehicle: water 94 % of control

CN(C)c1ccc(N=Nc2ccc(C(=O)Cl)cc2)cc1
inactive: [6] 98 % of control | [7] 91 % of control | [8] 94 % of control

CN(C)c1ccc(C2(O)C3CCC2CC3)cc1 (stereo not drawn)
inactive: endpoint: median survival time, dose: 25.0 mg/kg/injection, schedule: Q04DX002 (ip), vehicle: saline with Tween-80 90 % of control | endpoint: median survival time, dose: 50.0 mg/kg/injection, schedule: Q04DX002 (ip), vehicle: saline with Tween-80 100 % of control | endpoint: median survival time, dose: 100.0 mg/kg/injection, schedule: Q04DX002 (ip), vehicle: saline with Tween-80 90 % of control

CC1CN=C(c2ccc(NC(=O)Nc3ccc(NC(=O)c4ccc(C5=NCC(C)N5)cc4)cc3)cc2)N1 (stereo not drawn)
inactive: endpoint: mean survival time, dose: 26.0 mg/kg/injection, schedule: Q01DX Z (ip), vehicle: water 90 % of control
